Consider 5 compounds from patent US11873521B2, “Steviol glycoside and production method therefor, and sweetener composition containing same” (SUNTORY HOLDINGS LIMITED, priority 2017, dated 2024).

Entries after “also recorded” stand apart in the source; their conditions may differ.

The nature of data set [1]: Evaluation of flavors of novel steviol glycosides in powder forms. It is filed as in vivo. Particulars: only β-form. The protocol: Flavors of Novel steviol glycosides 1 and 2 in powder forms were evaluated. Specifically, Compounds 15 (corresponding to Novel steviol glycoside 1) and 17 (corresponding to Novel steviol glycoside 2) obtained by chemical syntheses were subjected to high performance liquid chromatography (HPLC) to isolate only the β-form, which was made into a powder form and subjected to flavor evaluation. Panelists trained about sensory attributes of sweeteners members: Suntory Beverage and Food Ltd.) evaluated.

Data set [2] can be described thus: Solubility in water. It is filed as physicochemical.
The conditions of data set [3]: samples adjusted to final Brix of 2 in terms of sucrose; cited from earlier work.
For data set [4] the following is noted: background art; cited from earlier work.

`C=C1C[C@@]23CCC4[C@](C)(C(=O)O[C@@H]5OC(CO)[C@@H](O)[C@H](O)C5O[C@@H]5OC(C)[C@H](O)[C@H](O)C5O)CCC[C@@]4(C)[C@@H]2CCC1(O[C@@H]1OC(CO)[C@@H](O)[C@H](O[C@@H]2OC(CO)[C@@H](O)[C@H](O)C2O)C1O[C@@H]1OC(C)[C@H](O)[C@H](O)C1O)C3` (some centres unmarked) [Compound 15]: the “undesirable flavor such as bitterness” value in data set [1] was “less undesirable flavor such as bitterness”. The Presence of sweetness result in data set [1] (listed as Novel steviol glycoside 1) is reported as “had sweetness; also recorded: Present”. In addition, the solubility in water result in data set [2] is “did not dissolve in water sufficiently”.
Turning to `C=C1C[C@@]23CCC4[C@](C)(C(=O)O[C@@H]5OC(CO)[C@@H](O)[C@H](O[C@@H]6OC(CO)[C@@H](O)[C@H](O)C6O)C5O[C@@H]5OC(C)[C@H](O)[C@H](O)C5O)CCC[C@@]4(C)[C@@H]2CCC1(O[C@@H]1OC(CO)[C@@H](O)[C@H](O[C@@H]2OC(CO)[C@@H](O)[C@H](O)C2O)C1O[C@@H]1OC(C)[C@H](O)[C@H](O)C1O)C3` (some centres unmarked) [Compound 17], the “undesirable flavor such as bitterness” value in data set [1] is “less undesirable flavor such as bitterness”. For the same compound, the Presence of sweetness result in data set [1] (listed as Novel steviol glycoside 2) is “had sweetness; also recorded: Present”. For the same compound, the Flavor characteristics entry in data set [1] (listed as Novel steviol glycoside 2, bitterness) is reported as “No bitterness”; in data set [1] (listed as Novel steviol glycoside 2, overall flavor) it was “Flavor resembled the mixture”.
As to `C=C1C[C@@]23CC[C@H]4[C@@](C)(CCC[C@@]4(C)C(=O)O[C@@H]4O[C@H](CO)[C@@H](O)[C@H](O)[C@H]4O)[C@@H]2CC[C@]1(O[C@@H]1O[C@H](CO)[C@@H](O)[C@H](O[C@@H]2O[C@H](CO)[C@@H](O)[C@H](O)[C@H]2O)[C@H]1O[C@@H]1O[C@H](CO)[C@@H](O)[C@H](O)[C@H]1O)C3` [Reb.A, rebaudioside A], the “sweetness level assumed for preparing beverage samples” value in data set [3] is recorded as 300. In addition, the “sweetness relative to sugar” value in data set [4] was 350-450 times the sweetness of sugar.
As to `C=C1C[C@@]23CC[C@H]4[C@@](C)(CCC[C@@]4(C)C(=O)O[C@@H]4O[C@H](CO)[C@@H](O)[C@H](O)[C@H]4O[C@@H]4O[C@H](CO)[C@@H](O)[C@H](O)[C@H]4O)[C@@H]2CC[C@]1(O[C@@H]1O[C@H](CO)[C@@H](O)[C@H](O[C@@H]2O[C@H](CO)[C@@H](O)[C@H](O)[C@H]2O)[C@H]1O[C@@H]1O[C@H](CO)[C@@H](O)[C@H](O)[C@H]1O)C3` [Reb.D, rebaudioside D], in data set [3], the “sweetness level assumed for preparing beverage samples” value is listed as 250.
For the compound `C=C1C[C@@]23CC[C@H]4[C@@](C)(CCC[C@@]4(C)C(=O)O[C@@H]4O[C@H](CO)[C@@H](O)[C@H](O)[C@H]4O)[C@@H]2CC[C@]1(O[C@@H]1O[C@H](CO)[C@@H](O)[C@H](O)[C@H]1O[C@@H]1O[C@H](CO)[C@@H](O)[C@H](O)[C@H]1O)C3` [Stevioside], the “sweetness relative to sugar” value in data set [4] is listed as 250-300 times the sweetness of sugar.
